{"source": "patent US20250002846A1", "about": "“METHOD FOR CONSTRUCTION OF INNER EAR ORGANOID” (INDUSTRY FOUNDATION OF CHONNAM NATIONAL UNIVERSITY, priority 2022, published 2025)", "key": {"[1]": {"system": "M-IEO-derived hair cell-like cells", "experiment": "Patch clamp of hair cell-like cells from microhole chip inner ear organoids, with or without cisplatin", "type": "cell-based, mouse", "settings": "68 pA−20 pA at 60 mV (so in the source)", "method": "(§1) A 10 mV nominal increment was made at the holding potential of −84 mV covering the range of −124 to +54 mV for a duration of […], before returning to a constant potential of −44 mV (tail current, 50 ms). The bath solution was prepared using L-15 media (Gibco) and the pipette solution was prepared using 150 mM KCl, 5 mM HEPES, 0.1 mM CaCl2, 5 mM EGTA, 3.5 mM Mg ATP, pH 7.3 (KOH), and Osmolality 288 mmol/kg. To obtain damaged IEO, IEO was treated with […] of cisplatin on day 30 for 48 hours (100 mg cisplatin/0.33 mL (D. W) a 3 μL cisplatin +20 mL medium). To apply the IEO for patch clamp, the IEO was treated with trypsin for 5 minutes and the detached cells were detected with a patch pipette (n=4). Whole cells of IEO-derived hair cell-like cells were subjected to close-seal technique, in order to compare the electrophysiology of IEOS formed in microhole chips (hereinafter “M-IEO”) and IEOs formed in U well plates (hereinafter “U-IEO”) using patch clamp assays (FIG. 5A). In the 3D structure of the IEO, cells were isolated using single cell trypsinization. First, the morphology of mouse organs of Corti hair cells, mESC (R1/E), and IEO-derived hair cell-like cells was confirmed (FIG. 5B). […]"}, "[2]": {"system": "U-IEO-derived hair cell-like cells", "experiment": "Patch clamp of hair cell-like cells from U well plate inner ear organoids, with or without cisplatin", "type": "cell-based, mouse", "method": "as §1"}}, "data": [{"smiles": "N.N.[Cl][Pt][Cl]", "note": "[cisplatin]", "values": [{"measurement": "loss of current, without versus with cisplatin", "setting": "[1]", "result": 48, "unit": "pA"}, {"measurement": "electrophysiology after culture with cisplatin", "setting": "[2]; 3-day culture with or without cisplatin", "result": "significantly reduced electrophysiology"}, {"measurement": "loss of current, without versus with cisplatin", "setting": "[2]; U-IEO, 138 pA−28 pA (so in the source)", "result": 110, "unit": "pA"}]}]}
